The Ki is a dissociation constant, usually derived from enzyme kinetics or from competition with a known ligand. Lower therefore signals a stronger hold on the target. The Kd is the concentration at which binding is half-saturated.

Each structure is given as a SMILES string.

The target of the experiment is T1, mouse TAAR1 (Mus musculus, UniProt Q923Y8).
T1 construct: expressed in transfected cells; host or cells: HEK293 cells (ATCC # CRL-1573), stably transfected with pIRESneo2 expression plasmid; membranes prepared
Description: Radioligand binding assay on membranes of HEK293 cells stably expressing TAAR1. The conditions noted are these: for Ki: mouse TAAR1, radioligand [3H]-rac-2-(1,2,3,4-tetrahydro-1-naphthyl)-2-imidazoline at 60 nM, 4° C., 30 minutes. How it is done:
Construction of TAAR Expression Plasmids and Stably Transfected Cell Lines
For the construction of expression plasmids the coding sequences of human, rat and mouse TAAR1 were amplified from genomic DNA essentially as described by Lindemann et al. (2005) genomics 85, 372-385. The Expand High Fidelity PCR System (Roche Diagnostics) was used with 1.5 mM Mg^2+ and purified PCR products were cloned into pCR2.1-TOPO cloning vector (Invitrogen) following the instructions of the manufacturer. PCR products were subcloned into the pIRESneo2 vector (BD Clontech, Palo Alto, Calif.), and expression vectors were sequence verified before introduction in cell lines.
HEK293 cells (ATCC # CRL-1573) were cultured essentially as described Lindemann et al. (2005) genomics 85, 372-385. For the generation of stably transfected cell lines HEK293 cells were transfected with the pIRESneo2 expression plasmids containing the TAAR coding sequences (described above) with Lipofectamine 2000 (Invitrogen) according to the instructions of the manufacturer, and 24 hours post transfection the culture medium was supplemented with 1 mg/ml G418 (Sigma, Buchs, Switzerland). After a culture period of about 10 d clones were isolated, expanded and tested for responsiveness to trace amines (all compounds purchased from Sigma) with the cAMP Biotrak Enzyme immunoassay (EIA) System (Amersham) following the non-acetylation EIA procedure provided by the manufacturer.
Membrane Preparation and Radioligand Binding
Cells at confluence were rinsed with ice-cold phosphate buffered saline without Ca^2+ and Mg^2+ containing 10 mM EDTA and pelleted by centrifugation at 1000 rpm for 5 minutes at 4° C. The pellet was then washed twice with ice-cold phosphate buffered saline and the cell pellet was frozen immediately by immersion in liquid nitrogen and stored until use at −80° C. The cell pellet was then suspended in 20 ml HEPES-NaOH (20 mM), pH 7.4 containing 10 mM EDTA, and homogenized with a Polytron (PT 3000, Kinematica) at 10,000 rpm for 10 seconds. The homogenate was centrifuged at 48,000×g for 30 minutes at 4° C. and the pellet resuspended in 20 ml HEPES-NaOH (20 mM), pH 7.4 containing 0.1 mM EDTA (buffer A), and homogenized with a Polytron at 10,000 rpm for 10 seconds. The homogenate was then centrifuged at 48,000×g for 30 minutes at 4° C. and the pellet resuspended in 20 ml buffer A, and homogenized with a Polytron at 10,000 rpm for 10 seconds. Protein concentration was determined by the method of Pierce (Rockford, Ill.). The homogenate was then centrifuged at 48,000×g for 10 minutes at 4° C., resuspended in HEPES-NaOH (20 mM), pH 7.0 including MgCl2 (10 mM) and CaCl2 ([…]) (buffer B) at 200 μg protein per ml and homogenized with a Polytron at 10,000 rpm for 10 seconds.
Binding assay was performed at 4° C. in a final volume of 1 ml, and with an incubation time of 30 minutes. The radioligand [^3H]-rac-2-(1,2,3,4-tetrahydro-1-naphthyl)-2-imidazoline was used at a concentration equal to the calculated Kd value of 60 nM to give a total binding at around 0.1% of the total added radioligand concentration, and a specific binding which represented approximately 70-80% of the total binding. Non-specific binding was defined as the amount of [^3H]-rac-2-(1,2,3,4-tetrahydro-1-naphthyl)-2-imidazoline bound in the presence of the appropriate unlabelled ligand (10 μM). Competing ligands were tested in a wide range of concentrations (10 pM-30 μM). […] Each experiment was performed in duplicate. All incubations were terminated by rapid filtration through UniFilter-96 plates (Packard Instrument Company) and glass filter GF/C, pre-soaked for at least 2 hours in polyethylenimine 0.3%, and using a Filtermate 96 Cell Harvester (Packard Instrument Company). […]

T1 sequence (Q923Y8 whole entry): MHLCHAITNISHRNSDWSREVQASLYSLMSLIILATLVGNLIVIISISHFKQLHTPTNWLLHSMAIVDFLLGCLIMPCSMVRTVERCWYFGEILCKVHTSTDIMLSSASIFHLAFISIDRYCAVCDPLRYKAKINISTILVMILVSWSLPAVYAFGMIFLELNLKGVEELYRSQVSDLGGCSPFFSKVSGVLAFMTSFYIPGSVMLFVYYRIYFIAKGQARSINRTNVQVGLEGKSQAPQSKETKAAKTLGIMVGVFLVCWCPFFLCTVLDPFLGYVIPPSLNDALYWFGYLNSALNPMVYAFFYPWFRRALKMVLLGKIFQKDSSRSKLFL

Take `CC(Nc1ncc[nH]1)c1ccccc1` (racemic) [Example 9, (R,S)-(1H-Imidazol-2-yl)-(1-phenyl-ethyl)-amine]: the affinity corresponds to a Ki of 0.46 µM.
The compound `Cc1ccccc1C(C)Nc1ncc[nH]1` (racemic) [Example 21, (R,S)-(1H-Imidazol-2-yl)-(1-o-tolyl-ethyl)-amine] had a Ki of 0.81 µM.
Still for that read-out and setting: the result for `CC(Nc1ncc[nH]1)c1cccc(Cl)c1Cl` (racemic) [Example 22, (R,S)-[1-(2,3-Dichloro-phenyl)-ethyl]-(1H-imidazol-2-yl)-amine] reads 0.076 µM; that for `CC(Nc1ncc[nH]1)c1ccccc1Cl` (racemic) [Example 29, (RS)-[1-(2-Chloro-phenyl)-ethyl]-(1H-imidazol-2-yl)-amine], 0.24 µM.
In the case of `c1ccc2c(c1)CCCC2C1=NCCN1` (racemic) [[^3H]-rac-2-(1,2,3,4-tetrahydro-1-naphthyl)-2-imidazoline, reference compound], for the setting “TAAR1 membrane binding, species not given, read-out: calculated Kd value of the radioligand”, the Kd was 60 nM.
In the case of `COC(Cc1ncc[nH]1)c1cccc(Cl)c1` (stereo not shown) [Example 1, 2-[2-(3-Chloro-phenyl)-2-methoxy-ethyl]-1H-imidazole], the Ki was found to be 0.78 µM.
On the same count and under the same terms, to `Clc1cccc(SCc2ncc[nH]2)c1Cl` [Example 3, 2-(2,3-Dichloro-phenylsulfanylmethyl)-1H-imidazole] belongs 0.14 µM; to `Clc1cccc(CNc2ncc[nH]2)c1` [Example 6, (3-Chloro-benzyl)-(1H-imidazol-2-yl)-amine], 0.86 µM; to `Clc1ccc(CNc2ncc[nH]2)cc1Cl` [Example 7, (3,4-Dichloro-benzyl)-(1H-imidazol-2-yl)-amine], 0.47 µM.
Compound `Clc1cccc(CNc2ncc[nH]2)c1Cl` [Example 8, (2,3-Dichloro-benzyl)-(1H-imidazol-2-yl)-amine] had an inhibitory constant (Ki) of 0.18 µM.
In turn, `Cc1cccc(CNc2ncc[nH]2)c1` [Example 11, (1H-Imidazol-2-yl)-(3-methyl-benzyl)-amine] came in with an inhibition constant (Ki) of 0.94 µM. Compared with the last compound, the Ki is about 5.2-fold higher.
As for `Fc1cccc(CNc2ncc[nH]2)c1` [Example 16, (3-Fluoro-benzyl)-(1H-imidazol-2-yl)-amine], the affinity, expressed as Ki, was 0.98 µM. This Ki and that of the compound before are within 1.5-fold of each other.
Compound `c1ccc2cc(CNc3ncc[nH]3)ccc2c1` [Example 24, (1H-Imidazol-2-yl)-naphthalen-2-ylmethyl-amine] yielded a Ki of 0.67 µM. This Ki and that of the compound before are within 1.5-fold of each other.

(Values after US7858653B2, “2-imidazoles” (Hoffman-La Roche Inc., priority 2006, dated 2010).)
